pIC50: −log10 of the molar value. Like-named read-outs stand apart in the source and are kept apart here.
What was measured:
[1] = target: T1, recombinant human c-Met/HGF receptor (Homo sapiens, UniProt P08581); test: In vitro receptor tyrosine kinase assay (DELFIA), c-Met/HGF receptor; assay type: biochemical
T1 construct: His tag (pBlueBacHis2A vector); made in house; host or cells: Hi-5 cells (Trichoplusia ni), baculovirus
Description: Cell pellets were frozen at −80° C. until purification was performed.
The coated plates were washed and stored at 4° C. […] After incubation, the kinase reactions were quenched with EDTA and the plates were washed.

[2] = target: T2, VEGF receptor KDR (Homo sapiens, UniProt P35968); test: In vitro receptor tyrosine kinase assay (DELFIA), VEGF receptor KDR; assay type: biochemical
T2 construct: made in house; host or cells: Sf9 cells (Spodoptera frugiperda), baculovirus

[3] = target: T3, TPR-MET fusion protein (Homo sapiens, UniProt P08581); test: C-Met phosphorylation cell-based assay (MNNGHOS cells)
T3 construct: the MET gene on chromosome 7 encoding for its cytoplasmic region catalytic domain; host or cells: MNNGHOS cells; the other entry of the earlier key: TPR (P12270, Nucleoprotein TPR)
Excerpt: C-Met Phosphorylation Cell-Based Assay
Signal was quantitated by densitometry on Alpha-Imager.

[4] = tested on: A549; test: A549 wound healing inhibition (HGF dependent migration); assay type: cell-based; conditions: Homo sapiens, A549 cells, read-out: A549 WOUND HEALING INHIB IC50
Excerpt: (§1) HGF has well known activity in terms of inducing scattering and migration (wound healing) (Wells et al., Cell Motil Cytoskeleton. 2005 November 62(3):180-94; Miura et al., Urology 2001 December 58(6):1064-9; Nishimura et al., Int J Urol. 1998 May 5(3):276-81; Wang et al., Mol Cancer Ther. 2003 November; 2(11):1085-92; and Christensen et al., Cancer Res. 2003 Nov. 1; 63(21):7345-55).

[5] = tested on: DU145; test: DU145 scattering inhibition (HGF dependent scattering); assay type: cell-based; conditions: Homo sapiens, DU-145; HGF dependent scattering, DU145 cells; read-out: DU145 SCATTERING INHIB IC50
Excerpt: as §1

[6] = recombinant c-Met IC, 10 uM ATP, DELFIA, read-out: C-Met (IC50)
[7] = GST-VEGFR2 806-1356, 0.6 uM ATP, DELFIA, read-out: VEGFR (IC50)
[8] = MNNGHOS cells, 3 hours treatment, immunoblot, read-out: Y1230-34-35 TPR-MET phosphorylation (IC50)

T1 sequence (P08581 1078-1337): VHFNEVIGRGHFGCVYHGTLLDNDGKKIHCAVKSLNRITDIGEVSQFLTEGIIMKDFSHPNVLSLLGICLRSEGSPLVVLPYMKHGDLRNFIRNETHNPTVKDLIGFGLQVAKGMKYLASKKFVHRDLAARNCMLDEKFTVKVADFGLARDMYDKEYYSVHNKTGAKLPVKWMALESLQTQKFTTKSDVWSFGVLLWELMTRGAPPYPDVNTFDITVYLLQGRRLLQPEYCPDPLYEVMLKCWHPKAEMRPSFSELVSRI
T3 sequence (P08581 with tags, fused parts or gaps): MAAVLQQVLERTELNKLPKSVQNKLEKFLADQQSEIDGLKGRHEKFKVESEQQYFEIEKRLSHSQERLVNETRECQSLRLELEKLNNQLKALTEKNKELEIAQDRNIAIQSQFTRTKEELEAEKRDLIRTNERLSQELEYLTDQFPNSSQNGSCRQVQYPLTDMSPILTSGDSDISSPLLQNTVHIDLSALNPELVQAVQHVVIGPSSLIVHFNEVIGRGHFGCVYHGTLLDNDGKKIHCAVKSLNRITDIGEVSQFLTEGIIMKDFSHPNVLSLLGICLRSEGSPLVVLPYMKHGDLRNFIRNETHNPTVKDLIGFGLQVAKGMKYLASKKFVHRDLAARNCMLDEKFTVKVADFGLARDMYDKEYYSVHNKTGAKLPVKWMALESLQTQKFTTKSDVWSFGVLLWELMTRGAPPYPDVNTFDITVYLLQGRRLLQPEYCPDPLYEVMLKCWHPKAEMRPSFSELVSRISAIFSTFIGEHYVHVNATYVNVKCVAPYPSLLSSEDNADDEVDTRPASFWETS
T2 sequence (P35968 806-1356): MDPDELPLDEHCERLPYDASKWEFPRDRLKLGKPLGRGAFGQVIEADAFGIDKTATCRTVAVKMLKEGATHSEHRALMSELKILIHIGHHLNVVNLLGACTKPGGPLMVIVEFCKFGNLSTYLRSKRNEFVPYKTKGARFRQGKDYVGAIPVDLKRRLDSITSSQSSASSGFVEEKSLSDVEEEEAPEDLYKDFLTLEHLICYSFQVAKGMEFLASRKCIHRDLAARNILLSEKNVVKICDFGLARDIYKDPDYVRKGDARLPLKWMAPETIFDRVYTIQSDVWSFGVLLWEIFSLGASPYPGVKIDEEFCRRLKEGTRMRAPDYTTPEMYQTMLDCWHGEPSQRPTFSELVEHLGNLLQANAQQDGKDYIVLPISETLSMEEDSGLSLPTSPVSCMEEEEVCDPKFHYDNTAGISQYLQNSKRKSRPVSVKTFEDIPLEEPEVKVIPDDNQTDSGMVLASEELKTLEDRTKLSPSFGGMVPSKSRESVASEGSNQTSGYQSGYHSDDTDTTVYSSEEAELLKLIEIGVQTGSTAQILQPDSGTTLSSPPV

SMILES | pIC50 [1, 6] | pIC50 [2, 7] | pIC50 [3, 8] | pIC50 [1] | pIC50 [3] | pIC50 ([1]; read-out: CMET IC50) | pIC50 ([2]; read-out: VEGFR IC50) | pIC50 [4] | pIC50 [5]
Cn1ccnc1-c1cc2nccc(Oc3ccc(NC(=O)CC(=O)Nc4ccncc4)cc3F)c2s1 [Compound 34, N^1-{3-Fluoro-4-[2-(1-methyl-1H-imidazol-2-yl)-thieno[3,2-b]pyridin-7-yloxy]-phenyl}-N^3-pyridin-4-yl-malonamide] | 6.44 | 7.72 | < 5.30 | – | – | – | – | – | –
Cn1ccnc1-c1cc2nccc(Oc3ccc(NC(=O)CC(=O)Nc4cccnc4)cc3F)c2s1 [Compound 40, N^1-(3-Fluoro-4-(2-(1-methyl-1H-imidazol-2-yl)thieno[3,2-b]pyridin-7-yloxy)phenyl)-N^3-(pyridine-3-yl)malonamide] | 6.57 | 7.89 | ~6.30 | – | – | – | – | – | –
COc1ccccc1NC(=O)CC(=O)Nc1ccc(Oc2ccnc3cc(-c4cncn4C)sc23)c(F)c1 [Compound 28c, N^1-(3-Fluoro-4-(2-(1-methyl-1H-imidazol-5-yl)thieno[3,2-h]pyridin-7-yloxy)phenyl)-N^3-(2-methoxyphenyl)malonamide] | 7.40 | 7.89 | 6.23 | – | – | – | – | – | –
Cn1cncc1-c1cc2nccc(Oc3ccc(NC(=O)CC(=O)Nc4ccccc4)cc3F)c2s1 [Compound 5e, N^1-(3-Fluoro-4-(2-(1-methyl-1H-imidazol-5-yl)thieno[3,2-b]pyridin-7-yloxy)phenyl)-N^3-phenylmalonamide] | – | 8.30 | – | 7.80 | 6.81 | – | – | – | –
O=C(CC(=O)Nc1ccc(Oc2ccnc3cc(C(=O)N4CCCC4)sc23)c(F)c1)Nc1ccccc1 [Compound 5f, N^1-(3-Fluoro-4-(2-(pyrrolidine-1-carbonyl)thieno[3,2-b]pyridin-7-yloxy)phenyl)-N^3-phenylmalonamide] | 7.40 | 8.40 | ~5.70 | – | – | – | – | – | –
Cn1ccnc1-c1cc2nccc(Oc3ccc(NC(=O)CC(=O)Nc4ccccc4)cc3F)c2s1 [Compound 5b, N^1-(3-Fluoro-4-(2-(1-methyl-1H-imidazol-2-yl)thieno[3,2-b]pyridin-7-yloxy)phenyl)-N^3-phenylmalonamide] | 7.28 | 8.40 | 7.40 | – | – | – | – | – | –
Cn1ccnc1-c1cc2nccc(Oc3ccc(NC(=O)CC(=O)Nc4ccccc4F)cc3F)c2s1 [Compound 30a, N^1-(3-Fluoro-4-(2-(1-methyl-1H-imidazol-2-yl)thieno[3,2-b]pyridin-7-yloxy)phenyl)-N^3-(2-fluorophenyl)malonamide] | 7.51 | 8.30 | 7.55 | – | – | – | – | – | –
COc1ccccc1NC(=O)CC(=O)Nc1ccc(Oc2ccnc3cc(-c4nccn4C)sc23)c(F)c1 [Compound 28a, N^1-(3-Fluoro-4-(2-(1-methyl-1H-imidazol-2-yl)thieno[3,2-b]pyridin-7-yloxy)phenyl)-N^3-(2-methoxyphenyl)malonamide] | 7.38 | 8.30 | ~6.70 | – | – | – | – | – | –
COc1ccccc1NC(=O)CC(=O)Nc1ccc(Oc2ccnc3cc(C(=O)N4CC(O)C4)sc23)c(F)c1 | – | – | – | – | – | 6.60 to 7.30 | > 7.30 | 5.30 to 6.00 | 5.30 to 6.00
CCn1cnc(-c2cc3nccc(Oc4ccc(NC(=O)C(=O)NCCc5ccccc5F)cc4F)c3s2)c1 | – | – | – | – | – | 6.60 to 7.30 | 6.60 to 7.30 | 5.30 to 6.00 | < 5.00
Cn1cnc(-c2cc3nccc(Oc4ccc(NC(=O)C5CCN(c6ccccc6F)C5=O)cc4F)c3s2)c1 (stereo not shown) | – | – | – | – | – | 6.60 to 7.30 | 6.30 to 6.60 | > 6.00 | 5.30 to 6.00
O=C(CC(=O)Nc1ccc(Oc2ccnc3cc(-c4ccc(CN5CCNCC5)cc4)sc23)c(F)c1)Nc1ccccc1 | – | – | – | – | – | > 7.30 | > 7.30 | 5.30 to 6.00 | > 6.00
Cn1cnc(-c2cc3nccc(Oc4ccc(NC(=O)C5CCN(c6cccnc6)C5=O)cc4F)c3s2)c1 (stereo not shown) | – | – | – | – | – | 6.30 to 6.60 | 6.30 to 6.60 | 5.30 to 6.00 | 5.30 to 6.00
Cn1ccnc1-c1cc2nccc(Oc3ccc(NC(=O)CC(=O)Nc4cccnc4)cc3F)c2s1 [drawing 282] | – | – | – | – | – | 6.30 to 6.60 | > 7.30 | > 6.00 | 5.30 to 6.00
CCn1cnc(-c2cc3nccc(Oc4ccc(NC(=O)CC(=O)Nc5ccccc5C(F)(F)F)cc4F)c3s2)c1 | – | – | – | – | – | 6.60 to 7.30 | > 7.30 | 5.30 to 6.00 | > 6.00
CCn1cnc(-c2cc3nccc(Oc4ccc(NC(=O)CC(=O)Nc5ccc(OC)cc5)cc4F)c3s2)c1 | – | – | – | – | – | 6.60 to 7.30 | > 7.30 | > 6.00 | 5.30 to 6.00
COc1ccccc1NC(=O)CC(Nc1ccc(Oc2ccnc3cc(-c4cn(C)cn4)sc23)c(F)c1)C(F)(F)F (stereo not shown) | – | – | – | – | – | < 6.30 | > 7.30 | 5.30 to 6.00 | < 5.00
COc1ccccc1NC(=O)CC(=O)Nc1ccc(Oc2ccnc3cc(N4CCCC4=O)sc23)c(F)c1 | – | – | – | – | – | 6.60 to 7.30 | 6.60 to 7.30 | > 6.00 | > 6.00
CN1CCN(CCN(C)Cc2ccc(-c3cc4nccc(Oc5ccc(NC(=O)CC(=O)N(C)c6ccccc6)cc5F)c4s3)cc2)CC1 | – | – | – | – | – | > 7.30 | > 7.30 | 5.30 to 6.00 | > 6.00
Cn1cnc(-c2cc3nccc(Oc4ccc(NC(=O)C5(C(=O)Nc6ccccc6F)CC5)cc4F)c3s2)c1 | – | – | – | – | – | > 7.30 | > 7.30 | 5.30 to 6.00 | > 6.00
CCn1cnc(-c2cc3nccc(Oc4ccc(NC(=O)C(=O)NCCc5ccccc5OC)cc4F)c3s2)c1 | – | – | – | – | – | 6.60 to 7.30 | > 7.30 | 5.30 to 6.00 | < 5.00
CCn1cncc1-c1cc2nccc(Oc3ccc(NC(=O)CC(=O)Nc4ccccc4F)cc3F)c2s1 | – | – | – | – | – | 6.60 to 7.30 | 6.60 to 7.30 | 5.30 to 6.00 | 5.30 to 6.00
COCCn1cnc(-c2cc3nccc(Oc4ccc(NC(=O)CC(=O)Nc5ccccc5)cc4F)c3s2)c1 | – | – | – | – | – | > 7.30 | > 7.30 | > 6.00 | > 6.00
CCCn1cnc(-c2cc3nccc(Oc4ccc(NC(=O)CC(=O)Nc5ccccc5F)cc4F)c3s2)c1 | – | – | – | – | – | > 7.30 | > 7.30 | > 6.00 | > 6.00
CCn1cnc(-c2cc3nccc(Oc4ccc(NC(=O)N5CCN(c6ccccc6OC)C5=O)cc4F)c3s2)c1 | – | – | – | – | – | > 7.30 | > 7.30 | 5.30 to 6.00 | > 6.00
CC(C(=O)Nc1ccccc1)C(=O)Nc1ccc(Oc2ccnc3cc(-c4nccn4C)sc23)c(F)c1 (stereo not shown) [drawing 286] | – | – | – | – | – | 6.60 to 7.30 | > 7.30 | 5.30 to 6.00 | 5.30 to 6.00
CCn1cnc(-c2cc3nccc(Oc4ccc(NC(=O)CC(=O)Nc5ccccc5O)cc4F)c3s2)c1 | – | – | – | – | – | > 7.30 | > 7.30 | 5.30 to 6.00 | 5.30 to 6.00
CCn1cnc(-c2cc3nccc(Oc4ccc(NC(=O)CC(=O)Nc5cccc(F)c5)cc4F)c3s2)c1 | – | – | – | – | – | 6.60 to 7.30 | > 7.30 | > 6.00 | 5.30 to 6.00
COc1ccccc1NC(=O)CC(=O)Nc1ccc(Oc2ccnc3cc(-c4cn(C)cn4)sc23)c(F)c1 | – | – | – | – | – | 6.60 to 7.30 | > 7.30 | > 6.00 | > 6.00
CN(C)CCn1cnc(-c2cc3nccc(Oc4ccc(NC(=O)N5CCN(c6ccccc6)C5=O)cc4F)c3s2)c1 | – | – | – | – | – | > 7.30 | > 7.30 | > 6.00 | > 6.00

Reference: patent US8329726B2, “Inhibitors of VEGF receptor and HGF receptor signaling” (MethylGene Inc., priority 2005, dated 2012)
